# In the supplement of paper PMC10307832:
# Key:
# Test in all cases: relative viability (nuclei count vs DMSO), 5 days (fraction); higher = more cells survive
# EPLC-272H = test system: EPLC-272H
# How it was run: (§1)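 One day after seeding in 1536-well plates, lung cancer cell lines were dosed by pin tool. Dosing was either single-drug or a fixed anchor-drug dose plus five library-drug doses (not always all listed) in √10 steps. After 5 days, nuclei were stained in one fix-and-stain step and counted on 4× images, and relative viability is the nuclei count of treated wells over that of vehicle wells, given as the median of duplicate plates.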
# NCI-H2085 = test system: NCI-H2085
# How it was run: as §1
# UMC-11 = test system: UMC-11
# How it was run: as §1
# SW 1573 = test system: SW 1573
# How it was run: as §1
# HARA = test system: HARA
# How it was run: as §1
# LOU-NH91 = test system: LOU-NH91
# How it was run: as §1
# NCI-H2009 = test system: NCI-H2009
# How it was run: as §1
# NCI-H650 = test system: NCI-H650
# How it was run: as §1
# SW 900 = test system: SW 900
# How it was run: as §1
# LC-2-ad = test system: LC-2-ad
# How it was run: as §1
# NCI-H1651 = test system: NCI-H1651
# How it was run: as §1
# NCI-H23 = test system: NCI-H23
# How it was run: as §1
# H3255 = test system: H3255
# How it was run: as §1
# PC-3 [JPC-3] = test system: PC-3 [JPC-3]
# How it was run: as §1
# NCI-H838 = test system: NCI-H838
# How it was run: as §1
# NCI-H2023 = test system: NCI-H2023
# How it was run: as §1
# NCI-H1975 = test system: NCI-H1975
# How it was run: as §1
# NCI-H441 = test system: NCI-H441
# How it was run: as §1
# NCI-H2087 = test system: NCI-H2087
# How it was run: as §1
# NCI-H727 = test system: NCI-H727
# How it was run: as §1
# NCI-H2170 = test system: NCI-H2170
# How it was run: as §1
# NCI-H2228 = test system: NCI-H2228
# How it was run: as §1
# NCI-H1650 = test system: NCI-H1650
# How it was run: as §1
structure (smiles),measurement,setting,value
CN1CCN(CCOc2cc(OC3CCOCC3)c3c(Nc4c(Cl)ccc5c4OCO5)ncnc3c2)CC1 [Saracatinib] + Cc1nc(Nc2ncc(C(=O)Nc3c(C)cccc3Cl)s2)cc(N2CCN(CCO)CC2)n1 [Dasatinib] (partner 0.075 µM),relative viability,EPLC-272H; first compound 0.02 µM,0.382
same,relative viability,EPLC-272H; first compound 0.2 µM,0.401
same,relative viability,EPLC-272H; first compound 0.6325 µM,0.375
same,relative viability,EPLC-272H; first compound 2 µM,0.307
same,relative viability,NCI-H2085; first compound 0.02 µM,0.286
same,relative viability,NCI-H2085; first compound 0.2 µM,0.321
same,relative viability,NCI-H2085; first compound 0.6325 µM,0.345
same,relative viability,NCI-H2085; first compound 2 µM,0.3
same,relative viability,UMC-11; first compound 0.02 µM,0.471
same,relative viability,UMC-11; first compound 0.6325 µM,0.543
same,relative viability,UMC-11; first compound 2 µM,0.473
same,relative viability,SW 1573; first compound 0.02 µM,0.463
same,relative viability,SW 1573; first compound 0.2 µM,0.454
same,relative viability,SW 1573; first compound 0.6325 µM,0.489
same,relative viability,SW 1573; first compound 2 µM,0.336
same,relative viability,HARA; first compound 0.02 µM,0.225
same,relative viability,HARA; first compound 0.2 µM,0.224
same,relative viability,HARA; first compound 0.6325 µM,0.272
same,relative viability,HARA; first compound 2 µM,0.23
same,relative viability,LOU-NH91; first compound 0.02 µM,0.507
same,relative viability,LOU-NH91; first compound 0.2 µM,0.429
same,relative viability,LOU-NH91; first compound 0.6325 µM,0.418
same,relative viability,LOU-NH91; first compound 2 µM,0.419
same,relative viability,NCI-H2009; first compound 0.02 µM,0.298
same,relative viability,NCI-H2009; first compound 0.2 µM,0.274
same,relative viability,NCI-H2009; first compound 0.6325 µM,0.262
same,relative viability,NCI-H2009; first compound 2 µM,0.265
same,relative viability,NCI-H650; first compound 0.02 µM,0.491
same,relative viability,NCI-H650; first compound 0.2 µM,0.416
same,relative viability,NCI-H650; first compound 0.6325 µM,0.477
same,relative viability,NCI-H650; first compound 2 µM,0.429
same,relative viability,SW 900; first compound 0.02 µM,0.559
same,relative viability,SW 900; first compound 0.2 µM,0.549
same,relative viability,SW 900; first compound 0.6325 µM,0.548
same,relative viability,SW 900; first compound 2 µM,0.549
same,relative viability,LC-2-ad; first compound 0.02 µM,0.611
same,relative viability,LC-2-ad; first compound 0.2 µM,0.571
same,relative viability,LC-2-ad; first compound 0.6325 µM,0.794
same,relative viability,LC-2-ad; first compound 2 µM,0.596
same,relative viability,NCI-H1651; first compound 0.02 µM,0.565
same,relative viability,NCI-H1651; first compound 0.2 µM,0.37
same,relative viability,NCI-H1651; first compound 0.6325 µM,0.439
same,relative viability,NCI-H1651; first compound 2 µM,0.406
same,relative viability,NCI-H23; first compound 0.02 µM,0.805
same,relative viability,NCI-H23; first compound 0.2 µM,0.613
same,relative viability,NCI-H23; first compound 0.6325 µM,0.837
same,relative viability,NCI-H23; first compound 2 µM,0.789
same,relative viability,H3255; first compound 0.02 µM,0.389
same,relative viability,H3255; first compound 0.2 µM,0.303
same,relative viability,H3255; first compound 0.6325 µM,0.344
same,relative viability,H3255; first compound 2 µM,0.267
same,relative viability,PC-3 [JPC-3]; first compound 0.02 µM,0.941
same,relative viability,PC-3 [JPC-3]; first compound 0.2 µM,0.952
same,relative viability,PC-3 [JPC-3]; first compound 0.6325 µM,0.682
same,relative viability,PC-3 [JPC-3]; first compound 2 µM,0.595
same,relative viability,NCI-H838; first compound 0.02 µM,0.274
same,relative viability,NCI-H838; first compound 0.2 µM,0.277
same,relative viability,NCI-H838; first compound 0.6325 µM,0.277
same,relative viability,NCI-H838; first compound 2 µM,0.281
same,relative viability,NCI-H2023; first compound 0.02 µM,0.664
same,relative viability,NCI-H2023; first compound 0.2 µM,0.651
same,relative viability,NCI-H2023; first compound 0.6325 µM,0.608
same,relative viability,NCI-H2023; first compound 2 µM,0.553
same,relative viability,NCI-H1975; first compound 0.02 µM,0.487
same,relative viability,NCI-H1975; first compound 0.2 µM,0.343
same,relative viability,NCI-H1975; first compound 0.6325 µM,0.372
same,relative viability,NCI-H1975; first compound 2 µM,0.253
same,relative viability,NCI-H441; first compound 0.02 µM,0.615
same,relative viability,NCI-H441; first compound 0.2 µM,0.442
same,relative viability,NCI-H441; first compound 0.6325 µM,0.715
same,relative viability,NCI-H441; first compound 2 µM,0.549
same,relative viability,NCI-H2087; first compound 0.02 µM,0.807
same,relative viability,NCI-H2087; first compound 0.2 µM,0.69
same,relative viability,NCI-H2087; first compound 0.6325 µM,0.928
same,relative viability,NCI-H2087; first compound 2 µM,0.656
same,relative viability,NCI-H727; first compound 0.02 µM,0.396
same,relative viability,NCI-H727; first compound 0.2 µM,0.377
same,relative viability,NCI-H727; first compound 0.6325 µM,0.564
same,relative viability,NCI-H727; first compound 2 µM,0.356
same,relative viability,NCI-H2170; first compound 0.02 µM,0.766
same,relative viability,NCI-H2170; first compound 0.2 µM,0.486
same,relative viability,NCI-H2170; first compound 0.6325 µM,0.548
same,relative viability,NCI-H2170; first compound 2 µM,0.265
same,relative viability,NCI-H2228; first compound 0.02 µM,0.501
same,relative viability,NCI-H2228; first compound 0.2 µM,0.556
same,relative viability,NCI-H2228; first compound 0.6325 µM,0.576
same,relative viability,NCI-H2228; first compound 2 µM,0.372
same,relative viability,NCI-H1650; first compound 0.02 µM,0.378
same,relative viability,NCI-H1650; first compound 0.2 µM,0.299
same,relative viability,NCI-H1650; first compound 0.6325 µM,0.359
same,relative viability,NCI-H1650; first compound 2 µM,0.371
